According to patent US20190167579A1, “ITRACONAZOLE DRY POWDERS” (priority 2017, published 2019):

System: Calu-3 cell line
Test: cNGI integrated dissolution and permeability on Calu-3 monolayers
Format: in vitro ADME
Experimental: A bio-relevant dissolution testing system was used based on mimicking the air-liquid interface at the respiratory epithelium interface using a cell-based in vitro method. A modified next generation impactor that incorporated cell culture plates onto collection stages (cNGI) was used to uniformly deposit materials onto the cell cultures. Dissolution and permeation of the drug through the epithelial cell monolayer was measured.
Epithelial cell monolayers grown at the air-liquid interface in Snapwell™ (Corning Costar, Massachusetts, USA) permeable insert were integrated into the cNGI. […] The transepithelial electrical resistance (TEER) was measured using an EVOM2 chopstick electrode connected to an EVOM2 Epithelial Voltohmmeter (World Precision Instruments, Hitchin, United Kingdom) and monolayers with a TEER above 450 Ω·cm^2 were deemed confluent. […]
Post-dosing of the dose on to the Snapwells from stage 4, the Snapwells were transferred to 6-well plates, which contained 2mL of PBS pH 7.4±2.0% SDS maintained at 37° C. Basolateral samples were taken at different time points and drug content was measured on an Agilent (Santa Clara, Calif., USA) 1260 Infinity series HPLC. Total dose delivered to the cells was measured from the total amount of drug dissolved over the time-course and from lysing cells post experimentation. […]

**Q.** Which “Dissolution and permeability kinetics, comparison” value does the source give for `CCC(C)n1ncn(-c2ccc(N3CCN(c4ccc(OCC5COC(Cn6cncn6)(c6ccc(Cl)cc6Cl)O5)cc4)CC3)cc2)c1=O` (stereo not shown) [Pure ITZ, Itraconazole] here?
**A.** slower
